For experiment [1], the system named is Staphylococcus aureus. Description: Antibacterial activity against methicillin-resistant Staphylococcus aureus N315 by micro broth dilution method. Type of experiment: functional.
Experiment [2] concerns Escherichia coli. Briefly: Antibacterial activity against Escherichia coli DH52 by micro broth dilution method. In kind it is functional. (Dilution methods test growth across graded concentrations, often in twofold steps.)
For experiment [3], the system named is Staphylococcus aureus. Description: Antibacterial activity against Staphylococcus aureus ATCC 25923 by micro broth dilution method. Type of experiment: functional.
In the next experiment the test system is Calf thymus DNA. Briefly: Binding affinity to calf thymus DNA by UV-visible spectroscopy. In kind it is nucleic-acid assay. Particulars: Bos taurus.
Experiment [4] relates to Escherichia coli. Description: Antibacterial activity against Escherichia coli JM109 by micro broth dilution method. Type of experiment: functional.
A further experiment has as its system Shigella dysenteriae. Briefly: Antibacterial activity against Shigella dysenteriae by micro broth dilution method. Type of experiment: functional.
Experiment [5] deals with Staphylococcus aureus. Description: Antibacterial activity against methicillin-resistant Staphylococcus aureus N315 at MIC measured after 6 passages. Type of experiment: functional, organism-based.
A further experiment deals with Salmonella enterica. Briefly: Antibacterial activity against Salmonella enterica ATCC 14028 by micro broth dilution method. Type of experiment: functional.
For the next experiment, the system named is Pseudomonas aeruginosa. Briefly: Antibacterial activity against Pseudomonas aeruginosa ATCC 27853 by micro broth dilution method. Type of experiment: functional.
Experiment [6] in a line: Antibacterial activity against Bacillus proteus ATCC 13315 by micro broth dilution method. Type of experiment: functional.
For the next experiment, the system named is Micrococcus luteus. Description: Antibacterial activity against Micrococcus luteus ATCC 4698 by micro broth dilution method. Type of experiment: functional. Particulars: NCTC 2665.
The next experiment has as its system Bacillus spizizenii. Briefly: Antibacterial activity against Bacillus subtilis ATCC 6633 by micro broth dilution method. In kind it is functional.
Experiment [7] in a line: Antifungal activity against Candida mycoderma ATCC 9888 after 24 hrs by micro broth dilution method. In kind it is functional. Conditions: Candida vini.
Another experiment has as its system Saccharomyces cerevisiae. Description: Antifungal activity against Saccharomyces cerevisiae ATCC 9763 after 24 hrs by micro broth dilution method. In kind it is functional. Particulars: ATCC 9763, 24 h.
Another experiment deals with Cyberlindnera jadinii. Briefly: Antifungal activity against Candida utilis ATCC 9950 after 24 hrs by micro broth dilution method. Particulars: Williopsis jadinii, ATCC 9950, 24 h. Type of experiment: functional.
Another experiment deals with Candida albicans. Briefly: Antifungal activity against Candida albicans ATCC 10231 after 24 hrs by micro broth dilution method. Type of experiment: functional. Particulars: ATCC 10231, 24 h.
The next experiment relates to Aspergillus flavus. Briefly: Antifungal activity against Aspergillus flavus ATCC 204304 after 24 hrs by micro broth dilution method. Particulars: ATCC 204304, 24 h. Type of experiment: functional.

As usually defined, the MIC is the lowest concentration that inhibits growth of the organism. A word on the MIC80: it is an inhibitory concentration at the 80% level, which refers to growth in some studies and to a panel of isolates in others. A high value points to weaker potency.

The structures appear in SMILES notation. ≈ marks a conversion by molar mass, not a printed value. Calls of active or inactive are those of the source. The rule behind the calls is not given here.

For `CCn1cc(C(=O)O)c(=O)c2cc(F)c(N3CCNCC3)cc21` [NORFLOXACIN], the MIC in the experiment with Staphylococcus aureus [1] came out at 8 µg/mL (≈ 25.1 µM); with Escherichia coli [2], 1 µg/mL (≈ 3.13 µM); against Staphylococcus aureus [3] it was 2 µg/mL (≈ 6.26 µM); with Escherichia coli [4], 1 µg/mL (≈ 3.13 µM); against Shigella dysenteriae, 16 µg/mL (≈ 50.1 µM); in the experiment with Salmonella enterica it was 4 µg/mL (≈ 12.5 µM). In addition, the minimum inhibitory concentration (MIC) with Pseudomonas aeruginosa stood at 16 µg/mL (≈ 50.1 µM); in [6], 8 µg/mL (≈ 25.1 µM); with Micrococcus luteus it was 2 µg/mL (≈ 6.26 µM); in the experiment with Bacillus spizizenii it was 4 µg/mL (≈ 12.5 µM). Besides, the outcome in the experiment on Calf thymus DNA was Active. In addition, in the experiment with Staphylococcus aureus [5], the result was inactive.
`O=C(O)c1cn(C2CC2)c2cc(N3CCN(Cc4nc5ccccc5n4Cc4ccccc4Cl)CC3)c(F)cc2c1=O`: the MIC80 is 4 µg/mL (≈ 6.83 µM) in experiment [7]; 16 µg/mL (≈ 27.3 µM) with Saccharomyces cerevisiae; 1 µg/mL (≈ 1.71 µM) in the experiment with Cyberlindnera jadinii; 8 µg/mL (≈ 13.7 µM) in the experiment with Candida albicans; 0.5 µg/mL (≈ 0.853 µM) with Aspergillus flavus. Also, the MIC against Staphylococcus aureus [1] is 4 µg/mL (≈ 6.83 µM); in the experiment on Escherichia coli [2] it was 2 µg/mL (≈ 3.41 µM); with Staphylococcus aureus [3] it was 16 µg/mL (≈ 27.3 µM); with Escherichia coli [4], 16 µg/mL (≈ 27.3 µM); in the experiment on Shigella dysenteriae it was 16 µg/mL (≈ 27.3 µM); in the experiment with Salmonella enterica, 2 µg/mL (≈ 3.41 µM). Moreover, the MIC turned out to be 2 µg/mL (≈ 3.41 µM) against Pseudomonas aeruginosa, 1 µg/mL (≈ 1.71 µM) in [6], 4 µg/mL (≈ 6.83 µM) against Micrococcus luteus and 0.5 µg/mL (≈ 0.853 µM) in the experiment on Bacillus spizizenii.
In the case of `CCn1cc(C(=O)O)c(=O)c2cc(F)c(N3CCN(Cc4nc5ccc(F)cc5[nH]4)CC3)cc21`, the MIC80 came out at 1 µg/mL (≈ 2.14 µM) in [7]; 0.5 µg/mL (≈ 1.07 µM) in the experiment with Saccharomyces cerevisiae; 0.25 µg/mL (≈ 0.535 µM) against Cyberlindnera jadinii; 2 µg/mL (≈ 4.28 µM) with Candida albicans; 0.5 µg/mL (≈ 1.07 µM) in the experiment on Aspergillus flavus. The MIC turned out to be 16 µg/mL (≈ 34.2 µM) in the experiment on Staphylococcus aureus [1]; 16 µg/mL (≈ 34.2 µM) in the experiment on Escherichia coli [2]; 16 µg/mL (≈ 34.2 µM) against Staphylococcus aureus [3]; 32 µg/mL (≈ 68.5 µM) with Escherichia coli [4]; 8 µg/mL (≈ 17.1 µM) in the experiment on Shigella dysenteriae; 8 µg/mL (≈ 17.1 µM) against Salmonella enterica. For the same compound, the MIC against Pseudomonas aeruginosa stood at 4 µg/mL (≈ 8.56 µM); in experiment [6], 2 µg/mL (≈ 4.28 µM); against Micrococcus luteus it was 0.5 µg/mL (≈ 1.07 µM); with Bacillus spizizenii, 8 µg/mL (≈ 17.1 µM).
Take `CCCCCn1c(CN2CCN(c3cc4c(cc3F)c(=O)c(C(=O)O)cn4C3CC3)CC2)nc2ccccc21`: the MIC80 in experiment [7] is 2 µg/mL (≈ 3.76 µM); against Saccharomyces cerevisiae it was 256 µg/mL (≈ 482 µM); in the experiment on Cyberlindnera jadinii, 8 µg/mL (≈ 15 µM); with Candida albicans it was 8 µg/mL (≈ 15 µM); with Aspergillus flavus it was 256 µg/mL (≈ 482 µM). Besides, the MIC amounted to 64 µg/mL (≈ 120 µM) in the experiment on Staphylococcus aureus [1]; 1 µg/mL (≈ 1.88 µM) with Escherichia coli [2]; 128 µg/mL (≈ 241 µM) in the experiment with Staphylococcus aureus [3]; 128 µg/mL (≈ 241 µM) in the experiment with Escherichia coli [4]; 8 µg/mL (≈ 15 µM) in the experiment with Shigella dysenteriae; 4 µg/mL (≈ 7.52 µM) against Salmonella enterica. In addition, the MIC in the experiment with Pseudomonas aeruginosa came out at 2 µg/mL (≈ 3.76 µM); in [6], 2 µg/mL (≈ 3.76 µM); in the experiment on Micrococcus luteus, 4 µg/mL (≈ 7.52 µM); against Bacillus spizizenii, 4 µg/mL (≈ 7.52 µM).
Regarding `CCn1cc(C(=O)O)c(=O)c2cc(F)c(N3CCN(Cc4nc5ccccc5n4Cc4ccccc4F)CC3)cc21`, the MIC80 (in experiment [7]; with Saccharomyces cerevisiae; with Cyberlindnera jadinii; with Candida albicans; against Aspergillus flavus) was 512 µg/mL (≈ 918 µM) each time. The MIC stood at 256 µg/mL (≈ 459 µM) against Staphylococcus aureus [1]; 512 µg/mL (≈ 918 µM) against Escherichia coli [2]; 512 µg/mL (≈ 918 µM) with Staphylococcus aureus [3]; 512 µg/mL (≈ 918 µM) against Escherichia coli [4]; 512 µg/mL (≈ 918 µM) in the experiment on Shigella dysenteriae; 512 µg/mL (≈ 918 µM) in the experiment on Salmonella enterica. In addition, the MIC is 512 µg/mL (≈ 918 µM) in the experiment on Pseudomonas aeruginosa, 512 µg/mL (≈ 918 µM) in experiment [6], 512 µg/mL (≈ 918 µM) with Micrococcus luteus and 128 µg/mL (≈ 230 µM) against Bacillus spizizenii.
For `CCn1cc(C(=O)O)c(=O)c2cc(F)c(N3CCN(Cc4nc5ccccc5n4CC)CC3)cc21`, the MIC80 in experiment [7] is 0.25 µg/mL (≈ 0.524 µM); in the experiment on Saccharomyces cerevisiae, 64 µg/mL (≈ 134 µM); with Cyberlindnera jadinii, 8 µg/mL (≈ 16.8 µM); in the experiment with Candida albicans it was 4 µg/mL (≈ 8.38 µM); with Aspergillus flavus it was 32 µg/mL (≈ 67 µM). Further, the MIC in the experiment on Staphylococcus aureus [1] was 8 µg/mL (≈ 16.8 µM); in the experiment with Escherichia coli [2] it was 4 µg/mL (≈ 8.38 µM); in the experiment on Staphylococcus aureus [3], 128 µg/mL (≈ 268 µM); in the experiment with Escherichia coli [4], 32 µg/mL (≈ 67 µM); in the experiment with Shigella dysenteriae, 128 µg/mL (≈ 268 µM); against Salmonella enterica, 0.5 µg/mL (≈ 1.05 µM). For the same compound, the MIC came out at 32 µg/mL (≈ 67 µM) against Pseudomonas aeruginosa, 1 µg/mL (≈ 2.09 µM) in [6], 4 µg/mL (≈ 8.38 µM) in the experiment on Micrococcus luteus and 2 µg/mL (≈ 4.19 µM) with Bacillus spizizenii.
Regarding `CCn1cc(C(=O)O)c(=O)c2cc(F)c(N3CCN(Cc4nc5ccccc5n4Cc4cccc(F)c4)CC3)cc21`, the MIC80 in experiment [7] came to 64 µg/mL (≈ 115 µM); in the experiment on Saccharomyces cerevisiae, 2 µg/mL (≈ 3.59 µM); with Cyberlindnera jadinii, 32 µg/mL (≈ 57.4 µM); against Candida albicans, 64 µg/mL (≈ 115 µM); against Aspergillus flavus, 2 µg/mL (≈ 3.59 µM). Moreover, the MIC against Staphylococcus aureus [1] was 32 µg/mL (≈ 57.4 µM); against Escherichia coli [2], 128 µg/mL (≈ 230 µM); in the experiment on Staphylococcus aureus [3], 128 µg/mL (≈ 230 µM); with Escherichia coli [4] it was 128 µg/mL (≈ 230 µM); against Shigella dysenteriae, 1 µg/mL (≈ 1.79 µM); against Salmonella enterica it was 8 µg/mL (≈ 14.3 µM). Besides, the MIC against Pseudomonas aeruginosa came out at 8 µg/mL (≈ 14.3 µM); in experiment [6] it was 4 µg/mL (≈ 7.17 µM); against Micrococcus luteus, 64 µg/mL (≈ 115 µM); against Bacillus spizizenii it was 128 µg/mL (≈ 230 µM).
Turning to `CCn1cc(C(=O)O)c(=O)c2cc(F)c(N3CCN(Cc4nc5ccc(Cl)cc5[nH]4)CC3)cc21`, the MIC80 in experiment [7] amounted to 8 µg/mL (≈ 16.5 µM); in the experiment on Saccharomyces cerevisiae, 8 µg/mL (≈ 16.5 µM); against Cyberlindnera jadinii, 8 µg/mL (≈ 16.5 µM); in the experiment with Candida albicans it was 32 µg/mL (≈ 66.1 µM); with Aspergillus flavus, 2 µg/mL (≈ 4.13 µM). Moreover, the MIC in the experiment with Staphylococcus aureus [1] worked out at 1 µg/mL (≈ 2.07 µM); against Escherichia coli [2] it was 0.5 µg/mL (≈ 1.03 µM); against Staphylococcus aureus [3], 2 µg/mL (≈ 4.13 µM); in the experiment on Escherichia coli [4] it was 2 µg/mL (≈ 4.13 µM); in the experiment on Shigella dysenteriae, 1 µg/mL (≈ 2.07 µM); against Salmonella enterica, 0.5 µg/mL (≈ 1.03 µM). In addition, the MIC against Pseudomonas aeruginosa was determined as 1 µg/mL (≈ 2.07 µM); in [6], 0.5 µg/mL (≈ 1.03 µM); against Micrococcus luteus, 1 µg/mL (≈ 2.07 µM); in the experiment on Bacillus spizizenii, 16 µg/mL (≈ 33.1 µM).

(Values after ChEMBL document CHEMBL3769303, “Discovery of membrane active benzimidazole quinolones-based topoisomerase inhibitors as potential DNA-binding antimicrobial agents” (Eur J Med Chem, 2016).)
